Patent US10350210B2, “EGFR and ALK dual inhibitor” (PRECEDO PHARMACEUTICALS CO., LTD, priority 2015, dated 2019)

How the values were obtained:
NCI-H3122 = experiment: Growth of cancer cells (Cell Titer-Glo viability), NCI-H3122; format: cell-based; conditions: Homo sapiens; NCI-H3122 (expressing ALK gene), 72 hrs; read-out: GI50
A431 = experiment: Growth of cancer cells (Cell Titer-Glo viability), A431; format: cell-based; conditions: Homo sapiens, A-431; A431 (wild-type EGFR), 72 hrs; read-out: GI50
A549 = experiment: Growth of cancer cells (Cell Titer-Glo viability), A549; format: cell-based; conditions: Homo sapiens; A549 (wild-type EGFR), 72 hrs
PC-9 = experiment: Growth of cancer cells (Cell Titer-Glo viability), PC-9; format: cell-based; conditions: Homo sapiens; PC-9 (EGFR delE746_A750 mutant), 72 hrs
Procedure, shortened: (§1)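 Cells are counted as viable by CellTiter-Glo chemiluminescence. Murine BaF3 lines depend on a stably transfected TEL-fused kinase after IL-3 withdrawal, and the NSCLC lines express mutant EGFR.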

NCI-H1975 = experiment: Growth of cancer cells (Cell Titer-Glo viability), NCI-H1975; format: cell-based; conditions: Homo sapiens; NCI-H1975 (EGFR L858R/T790M double mutant), 72 hrs
Procedure, shortened: as §1

BaF3-FL-EGFR-T790M-L858R = experiment: Cell growth (Cell Titer-Glo viability), BaF3-FL-EGFR-T790M-L858R; format: cell-based; conditions: Mus musculus; BaF3-FL-EGFR-T790M-L858R (EGFR T790M/L858R mutant kinase), 72 hrs
Procedure: By testing the effect of the novel kinase inhibitors on the proliferation of cancer cells, the selectivity of the compounds of the present disclosure in inhibiting the proliferation of cancer cells was further assessed. […]
The number of viable cells was determined quantitatively by a microplate reader using Cell Titer-Glo® (Promega, US) chemiluminescence cell viability assay kit.

NCI-H2122 = experiment: Growth of cancer cells (Cell Titer-Glo viability), NCI-H2122; format: cell-based; conditions: Homo sapiens; NCI-H2122 (wild-type EGFR), 72 hrs
BaF3-TEL-ALK = experiment: Cell growth (Cell Titer-Glo viability), BaF3-TEL-ALK; format: cell-based; conditions: Mus musculus; BaF3-TEL-ALK (stably expressing ALK kinase), 72 hrs
Procedure, shortened: (§2)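 Antiproliferative assay in engineered BaF3 lines made IL-3-independent by retroviral TEL-fused kinase constructs, and in cancer cell lines HCC827 (EGFR del19) and NCI-H3255 (EGFR L858R). Viable cells quantified by Cell Titer-Glo luminescence.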

CHO = experiment: Cell growth (Cell Titer-Glo viability), CHO; format: cell-based, Chinese hamster; conditions: Cricetulus griseus; CHO Chinese hamster ovary cell, 72 hrs; read-out: GI50
CHL = experiment: Cell growth (Cell Titer-Glo viability), CHL; format: cell-based, Chinese hamster; conditions: Cricetulus griseus; CHL Chinese hamster lung cell, 72 hrs; read-out: GI50
NCI-H2228 = experiment: Growth of cancer cells (Cell Titer-Glo viability), NCI-H2228; format: cell-based; conditions: Homo sapiens; NCI-H2228 (wild-type ALK), 72 hrs
BaF3-ALK-F1174L = experiment: Cell growth (Cell Titer-Glo viability), BaF3-ALK-F1174L; format: cell-based; conditions: Mus musculus; BaF3-ALK-F1174L (mutant ALK F1174L kinase), 72 hrs
Procedure, shortened: as §2

BaF3 = experiment: Cell growth (Cell Titer-Glo viability), BaF3; format: cell-based; conditions: BaF3 mouse primary B cell, 72 hrs
BaF3-NPM-ALK = experiment: Cell growth (Cell Titer-Glo viability), BaF3-NPM-ALK; format: cell-based; conditions: Mus musculus; BaF3-NPM-ALK (stably expressing ALK kinase), 72 hrs

GI50 (NCI-H3122): < 0.3 nM
GI50 (A431): 140 nM
GI50 (A549): 210 nM
GI50 (PC-9): 24 nM
GI50 (NCI-H1975): 25 nM
GI50 (BaF3-FL-EGFR-T790M-L858R): 2 nM
GI50 (NCI-H2122): 190 nM
GI50 (BaF3-TEL-ALK): < 3 nM
GI50 (NCI-H2228): < 3 nM
GI50 (BaF3-ALK-F1174L): 530 nM
GI50 (BaF3): 450 nM
GI50 (BaF3-NPM-ALK): < 0.3 nM
Structure (SMILES): C=CC(=O)Nc1cc(Nc2ncc(Cl)c(Nc3ccccc3S(=O)(=O)C(C)C)n2)c(OC)cc1N1CCN(C(C)C)CC1 [Compound 11, N-(5-(5-chloro-4-(2-(isopropylsulfonyl)phenylamino)pyrimidin-2-ylamino)-2-(4-isopropylpiperazin-1-yl)-4-methoxyphenyl)acrylamide]
GI50 (CHO): 1300 nM
GI50 (CHL): 1100 nM
